One experiment has as its system P815. Nature of the experiment: Cytotoxicity tested against P815 (murine mastocytoma) cell line using MTT assay. It is filed as functional, cell-based. Conditions: Mus musculus. (In general: Formazan colour is commonly taken as a measure of viable cells.)
The test system of a further experiment is L1210. Description: Cytotoxicity tested against L1210 (murine leukemia) cell line using MTT assay. It is filed as functional, cell-based. Conditions: Mus musculus.

In ChEMBL document CHEMBL1134876, “Sequence selective recognition of DNA by hairpin conjugates of a racemic seco-cyclopropaneindoline-2-benzofurancarboxamide and polyamides” (Bioorg Med Chem Lett, 2002) one finds IC50 data, which are given here for four molecules.

pIC50: −log10 of the molar value.

For `NCCCCNC(=O)c1cc(NC(=O)c2nc(NC(=O)CCCC(=O)Nc3ccc4oc(C(=O)N5CC(CCl)c6ccc(O)cc65)cc4c3)c[nH]2)c[nH]1` (stereo not drawn), the pIC50 – broadly, −log10 of the IC50, conventionally taken in molar units – is 4.11 in the experiment with P815 and 4.35 in the experiment on L1210.
The like results for `NCCCCNC(=O)c1cc(NC(=O)c2cc(NC(=O)CCCC(=O)Nc3ccc4oc(C(=O)N5CC(CCl)c6ccc(O)cc65)cc4c3)c[nH]2)c[nH]1` (stereo not drawn) were, in that order, 4.39 and 4.55.
For the molecule `NCCCCNC(=O)c1nc(NC(=O)c2cc(NC(=O)CCCC(=O)Nc3ccc4oc(C(=O)N5CC(CCl)c6ccc(O)cc65)cc4c3)c[nH]2)c[nH]1` (stereo not drawn), the pIC50 with P815 is 5.04; with L1210, 5.17.
The like results for `NCCCCNC(=O)c1nc(NC(=O)c2nc(NC(=O)CCCC(=O)Nc3ccc4oc(C(=O)N5CC(CCl)c6ccc(O)cc65)cc4c3)c[nH]2)c[nH]1` (stereo not drawn) were, in that order, 4.28 and 5.17.
